Measurements: patent publication EP2698385A1, “Detection of synthetic cannabinoids” (priority 2012, dated 2014)
Read-outs that look alike come from different tables or passages of the source.

Experiments:
[1] = tested on: antiserum raised to Immunogen I (Hapten A-BTG); experiment: Competitive ELISA microtiter plate assay (Example 19), antiserum raised to Immunogen I, Hapten A-HRP conjugate as detection reagent; type: binding, sheep; settings: for binding to the antibody produced from Immunogen I: result in words
Protocol: Aqueous solutions of the immunogens prepared in examples 5 and 13 were formulated with Freund's Complete Adjuvant (FCA) to form emulsions consisting of 2mg/ml Immunogen I and 2mg/ml of Immunogen II in 50%(v/v) FCA. Three sheep were immunised with each emulsion (1° immunisations), 0.25ml being intramuscularly injected at four sites in the rump of each animal. Subsequent immunisations (boosts 2-8) contained 1mg/ml Immunogen I and 1mg/ml Immunogen II. All boosts were emulsified in 50%(v/v) Freund's Incomplete Adjuvant (FIA) and administered to the appropriate sheep in the same manner as the 1° immunisations, at monthly intervals. Blood sampling took place 7-14 days after each boost. Each sample was processed to produce antiserum, which was further purified by caprylic acid and ammonium sulphate precipitation to yield an immunoglobulin (Ig) fraction. The Ig fraction was evaluated by competitive ELISA microtiter plate assay, as described in example 19 below.
Example 19: Development of competitive ELISA for JWH synthetic cannabinoids and metabolites. • (a) The wells of an enhanced binding 96 well polystyrene microtiter plate were coated with the Ig fraction of the antiserum raised to Immunogen I (Hapten A-BTG - example 5) and diluted in 10mM Tris, pH8.5 (125µl/well). The appropriate antibody coating concentration was determined using standard ELISA checkerboard techniques. The plate was incubated for 2 hours at 37°C, washed 4 times over a 10-minute period with Tris buffered saline containing Tween 20 (TBST) and tapped dry. Standard solutions of JWH synthetic cannabinoids, metabolites and selected molecules were prepared in TBST and 50µl of each was added to the appropriate wells. 75µl of conjugate (Hapten A-HRP) diluted in Tris buffer containing EDTA, D-mannitol, sucrose, thimerosal and BSA, was added to each of the wells. The appropriate dilution of conjugate was also determined using standard ELISA checkerboard techniques. The plate was incubated at 25°C for 1 hour. The excess unbound conjugate was removed by washing 6 times over a 10-minute period with TBST and tapped dry. 125µl of tetramethylbenzedine (TMB) substrate solution was added to each well of the plate that was then incubated for 15-20 minutes in the dark at room temperature. The reaction was terminated by addition of 125µl of 0.2M sulphuric acid to each well. The absorbance was then measured at 450nm using a microtiter plate reader. Employing each series of standards, calibration curves were generated and these were used to determine the specificity of the immunoassay for the JWH synthetic cannabinoids, metabolites and selected molecules. The results of this study are presented in Tables 1 to 3, cross-reactivity being calculated according to the following formula: %CR = […] /IC50,CR X 100 [formula] Where %CR is the percentage cross-reactivity, IC50, YWH-018 is the concentration of JWH-018 that causes 50% displacement of signal and IC50, CR is the concentration of JWH synthetic cannabinoid/metabolite/selected molecule that causes 50% displacement of signal.
Table 1: Data generated from a competitive microtiter plate assay for JWH synthetic cannabinoids and metabolites, employing antiserum raised to Immunogen II (Hapten B-BTG) and conjugate (Hapten A-HRP) as detection reagent. (b) In a similar manner to that described in Example 19(a), the wells of a 96 well microtiter plate were coated with the Ig fraction of the antiserum raised to Immunogen II ([…]). Conjugate (Hapten A-HRP) was employed as a detection reagent. […]

Antibody to Immunogen I = type: binding, sheep
Method in brief: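 Sheep anti-Immunogen I IgG coated on plates, then JWH-018 standards (0–40 ng/ml) competed with hapten-HRP conjugate for 1 h at 25°C. TMB read-out at 450 nm, 4-parameter fit. IC50 is the standard concentration giving 50% B/B0; cross-reactivity of related cannabinoids taken from the calibration curves.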

[2] = Table 2, 40 ng/ml highest concentration tested
[3] = Table 2, CR based on 100% for JWH-018
[4] = Cross-reactants at 100 ng/ml, Antibody to Immunogen I

SMILES: O=C(c1cccc2ccccc12)c1cn(CCCCCO)c2ccccc12 [JWH-018 N-(5-hydroxypentyl) metabolite]
- IC50 [1, 2]: 0.18 ng/mL
- % Cross-reactivity [1, 3]: 1505.56%
- %B/B0 (Antibody to Immunogen I; [4]): 3.50%

SMILES: CCCCn1cc(C(=O)c2cccc3ccccc23)c2ccccc21 [JWH-073]
- IC50 [1, 2]: 0.93 ng/mL
- % Cross-reactivity [1, 3]: 291.40%
- %B/B0 (Antibody to Immunogen I; [4]): 3.56%

SMILES: O=C(O)CCCCn1cc(C(=O)c2cccc3ccccc23)c2ccccc21 [JWH-018 N-pentanoic acid metabolite]
- IC50 [1, 2]: 0.42 ng/mL
- % Cross-reactivity [1, 3]: 645.24%
- %B/B0 (Antibody to Immunogen I; [4]): 4.51%

SMILES: O=C(c1cccc2ccccc12)c1c[nH]c2ccccc12 [3-(1-naphthoyl)-1H-Indole, 3-(1-naphthoyl)-1H-indole]
- IC50 [1, 2]: 3.84 ng/mL
- % Cross-reactivity [1, 3]: 70.57%
- %B/B0 (Antibody to Immunogen I; [4]): 15.63%

SMILES: CCCCCn1cc(C(=O)c2cccc3ccccc23)c2cc(O)ccc21 [JWH-018 5-hydroxyindole metabolite]
- IC50 [1, 2]: 0.39 ng/mL
- % Cross-reactivity [1, 3]: 694.87%
- binding to the antibody produced from Immunogen I [1]: able to bind
- %B/B0 (Antibody to Immunogen I; [4]): 11.79%

SMILES: CCCCCn1cc(C(=O)c2ccc(Cl)c3ccccc23)c2ccccc21 [JWH-398]
- IC50 ng/ml [1, 2]: >> 40 ng/ml
- % Cross-reactivity [1, 3]: << 6.78%
- %B/B0 (Antibody to Immunogen I; [4]): 60.31%

SMILES: CCCCCn1cc(C(=O)c2cccc3ccccc23)c2ccccc21 [JWH-018]
- IC50 [1, 2]: 2.71 ng/mL
- % Cross-reactivity [1, 3]: 100.00%
- IC50 ([1]; first Table 4, Immunogen I): 2.30 ng/mL
- % Cross-reactivity ([1]; first Table 4, Immunogen I, JWH-018 = 100): 100.00%
- binding to the antibody produced from Immunogen I [1]: able to bind
- %B/B0 (Antibody to Immunogen I; [4]): 5.19%
- %B/B0 (Antibody to Immunogen I; JWH-018 standard 0.625 ng/ml): 77%
- %B/B0 (Antibody to Immunogen I; JWH-018 standard 1.25 ng/ml): 62%
- %B/B0 (Antibody to Immunogen I; JWH-018 standard 2.5 ng/ml): 44%
- %B/B0 (Antibody to Immunogen I; JWH-018 standard 5 ng/ml): 31%
- %B/B0 (Antibody to Immunogen I; JWH-018 standard 10 ng/ml): 20%
- %B/B0 (Antibody to Immunogen I; JWH-018 standard 20 ng/ml): 14%
- %B/B0 (Antibody to Immunogen I; JWH-018 standard 40 ng/ml): 9%
- IC50 (Antibody to Immunogen I; Table 3a standard curve, standard concentration which produces 50% B/B0): 2.016 ng/mL

SMILES: CCCCCn1cc(C(=O)c2cccc3ccccc23)c2c(O)cccc21 [JWH-018 4-hydroxyindole metabolite]
- IC50 [1, 2]: 25.51 ng/mL
- % Cross-reactivity [1, 3]: 10.62%
- %B/B0 (Antibody to Immunogen I; [4]): 46.39%

SMILES: O=C(c1cccc2ccccc12)c1cn(CCN2CCOCC2)c2ccccc12 [WIN 55,225 (other name JWH-200), JWH-200]
- IC50 [1, 2]: 0.31 ng/mL
- % Cross-reactivity [1, 3]: 874.19%
- %B/B0 (Antibody to Immunogen I; [4]): 3.51%

SMILES: CCCCCn1cc(C(=O)c2cccc3ccccc23)c2ccc(O)cc21 [JWH-018 6-hydroxyindole metabolite]
- IC50 [1, 2]: 2.04 ng/mL
- % Cross-reactivity [1, 3]: 132.84%
- binding to the antibody produced from Immunogen I [1]: able to bind
- %B/B0 (Antibody to Immunogen I; [4]): 8.07%
